Laboratory results published in patent US4341893A, “Quinazoline derivatives” (Synthelabo, priority 1976, dated 1982).

Legend:
LD 50 rat (Table II) = settings: in vivo
[1] = test system: spontaneously hypertensive male rats (Okamoto strain); assay: Anti-hypertensive effect in spontaneously hypertensive rats, systolic pressure; assay type: in vivo; settings: 10 mg/kg perorally, spontaneously hypertensive rat
Description: Experiments were carried out on spontaneously hypertensive male rats (Okamoto strain), which were at least 14 weeks old. The systolic pressure was measured according to the technique described by Gerold and Tschirky (Arzneim.-Forsch. 1968, 18, 1285). The compounds were administered orally at a dose of 1 or 10 mg/kg.
Table II collects together the results obtained which are expressed in percent variation of the initial pressure, 2 hours, 4 hours and 24 hours after administration of the compound (I).

Structure (SMILES)	LD50 (LD 50 rat (Table II); ip / intraperitoneally) [mg/kg]	% variation of the pressure after 2 hours [1] [%]	% variation of the pressure after 4 hours [1] [%]	% variation of the pressure after 24 hours [1] [%]	LD50 (LD 50 rat (Table II); po, perorally) [mg/kg]
COc1cc2nc(N3CCC(C(=O)c4ccc5c(c4)OCO5)CC3)nc(N)c2cc1OC [Compound 1, 4-Amino-6,7-dimethoxy-2-[4-(3,4-methylenedioxybenzoyl)piperidino]-quinazoline]	> 500	-30	-32	-37	–
COc1cc2nc(N3CCC(C(=O)c4ccccc4)CC3)nc(N)c2cc1OC [Compound 2]	> 500	-43	-32	-40	–
COc1cccc(C(=O)C2CCN(c3nc(N)c4cc(OC)c(OC)cc4n3)CC2)c1 [Compound 3, 4-Amino-6,7-dimethoxy-2-[4-(3-methoxybenzoyl)-piperidino]-quinazoline]	~500	-32	-23	–	–
COc1cc2nc(N3CCC(C(=O)c4cccs4)CC3)nc(N)c2cc1OC [Compound 6]	> 500	-27	-22	-2	–
COc1cc2nc(N3CCC(C(=O)c4nnc(SC)o4)CC3)nc(N)c2cc1OC [Compound 7, 4-amino-6,7-dimethoxy-2-[4-(5-methylthio-1,3,4-oxadiazole-2-carbonyl)-piperidino]-quinazoline]	–	-24	-20	-2	> 500
COc1cc2nc(N(C)CCCN(C)C(=O)c3ccccc3)nc(N)c2cc1OC [Compound 10, N1-(4-amino-6,7-dimethoxy-quinazolinyl-2)-N2-benzoyl-N1 N2-dimethyl-propylenediamine]	–	-23	-15	-4	> 500
COc1cc2nc(NCCCN(C)C(=O)c3ccccc3)nc(N)c2cc1OC [Compound 12, N1-(4-amino-6,7-dimethoxy-quinazolinyl-2)-N2-benzoyl-N2-methyl-propylenediamine]	~400	-31	-23	–	–
